ChEMBL document CHEMBL1201862, “PubChem BioAssay data set” (2004)
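How tested: cells in 96-well plates exposed to compound for 48 hours at five concentrations. GI50 = concentration required for 50% inhibition of growth.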 Active and inactive are the calls of the source. Cut-off read from the data, not from the text of the source: active = GI50 up to about 1.1 µM and inactive = higher.

How the values were obtained:
Test in all cases: NCI tumour cell line growth inhibition, 48 h
SN12C = system: SN12C
OVCAR-5 = system: OVCAR-5
SK-MEL-5 = system: SK-MEL-5
CAKI-1 = system: CAKI-1
Malme-3M = system: Malme-3M
HL-60 = system: HL-60
UACC-257 = system: UACC-257
OVCAR-4 = system: OVCAR-4
HCT-116 = system: HCT-116
COLO 205 = system: COLO 205
M19-MEL = system: M19-MEL
NCI-H522 = system: NCI-H522
SF-295 = system: SF-295
HCT-15 = system: HCT-15
RXF 631 = system: RXF 631
UACC-62 = system: UACC-62
CCRF-CEM = system: CCRF-CEM
ACHN = system: ACHN
OVCAR-3 = system: OVCAR-3
A549 = system: A549
HOP-62 = system: HOP-62
IGROV-1 = system: IGROV-1
SK-MEL-28 = system: SK-MEL-28
SR = system: SR
KM-20L2 = system: KM-20L2
KM12 = system: KM12
SNB-19 = system: SNB-19
SNB-78 = system: SNB-78
SF-539 = system: SF-539
LXFL 529 = system: LXFL 529
HCC 2998 = system: HCC 2998
EKVX = system: EKVX
HOP-18 = system: HOP-18
MOLT-4 = system: MOLT-4
RXF 393 = system: RXF 393
SK-MEL-2 = system: SK-MEL-2
RPMI-8226 = system: RPMI-8226
U-251 = system: U-251
SK-OV-3 = system: SK-OV-3
SW-620 = system: SW-620
LOX IMVI = system: LOX IMVI
M14 = system: M14
OVCAR-8 = system: OVCAR-8
NCI-H460 = system: NCI-H460
NCI-H226 = system: NCI-H226
SF-268 = system: SF-268
NCI-H23 = system: NCI-H23
UO-31 = system: UO-31
DLD-1 = system: DLD-1
HT-29 = system: HT-29
K562 = system: K562
786-0 = system: 786-0
XF498 = system: XF498
DMS-114 = system: DMS-114
DMS-273 = system: DMS-273
A498 = system: A498
TK-10 = system: TK-10
SNB-75 = system: SNB-75
HOP-92 = system: HOP-92

In the case of `COc1ccc(-c2onc(-c3c(C)cc(C)cc3C)c2C2=NCCCN2)cc1`, the GI50 (SN12C) is reported as 50.8 µM (inactive), the GI50 (OVCAR-5) is reported as > 100 µM (inactive) and the GI50 (SK-MEL-5) is reported as 23 µM (inactive). The GI50 (CAKI-1) was 13.6 µM (inactive), the GI50 (Malme-3M) was 41.9 µM (inactive) and the GI50 (HL-60) was 15.1 µM (inactive). For the same compound, the GI50 (UACC-257) was 21.1 µM (inactive), the GI50 (OVCAR-4) was 49.9 µM (inactive) and the GI50 (HCT-116) was 28 µM (inactive). The GI50 (COLO 205) was 27.7 µM (inactive), the GI50 (M19-MEL) was > 100 µM (inactive) and the GI50 (NCI-H522) was 14.3 µM (inactive). For the same compound, the GI50 (SF-295) was 22.8 µM (inactive), the GI50 (HCT-15) was 39.1 µM and the GI50 (RXF 631) was 44.4 µM (inactive). For the same compound, the GI50 (UACC-62) was 55.2 µM (inactive), the GI50 (CCRF-CEM) was 35 µM (inactive) and the GI50 (ACHN) was 64.1 µM (inactive). For the same compound, the GI50 (OVCAR-3) was 57 µM (inactive), the GI50 (A549) was 65.8 µM (inactive) and the GI50 (HOP-62) was > 100 µM (inactive). For the same compound, the GI50 (IGROV-1) was > 100 µM (inactive), the GI50 (SK-MEL-28) was 36.4 µM (inactive) and the GI50 (SR) was 36.6 µM (inactive). For the same compound, the GI50 (KM-20L2) was 33.4 µM (inactive), the GI50 (KM12) was 46.3 µM (inactive) and the GI50 (SNB-19) was 35.1 µM (inactive). The GI50 (SNB-78) was 35.1 µM (inactive), the GI50 (SF-539) was 21.6 µM (inactive) and the GI50 (LXFL 529) was > 100 µM (inactive). The GI50 (HCC 2998) was > 100 µM (inactive), the GI50 (EKVX) was 96.8 µM (inactive) and the GI50 (HOP-18) was 2.1 µM (inactive). The GI50 (MOLT-4) was 41 µM (inactive), the GI50 (RXF 393) was 47.3 µM (inactive) and the GI50 (SK-MEL-2) was 36.1 µM (inactive). The GI50 (RPMI-8226) was 23.6 µM (inactive), the GI50 (U-251) was 22.3 µM (inactive) and the GI50 (SK-OV-3) was 30.6 µM (inactive). For the same compound, the GI50 (SW-620) was 46.2 µM (inactive), the GI50 (LOX IMVI) was 43.3 µM (inactive) and the GI50 (M14) was 21.1 µM (inactive). For the same compound, the GI50 (OVCAR-8) was 58.9 µM (inactive), the GI50 (NCI-H460) was 32.1 µM (inactive) and the GI50 (NCI-H226) was 36.4 µM (inactive). For the same compound, the GI50 (SF-268) was 36.7 µM (inactive), the GI50 (NCI-H23) was > 100 µM (inactive) and the GI50 (UO-31) was 21.1 µM (inactive). The GI50 (DLD-1) was 78.3 µM (inactive), the GI50 (HT-29) was 31.2 µM (inactive) and the GI50 (K562) was 28.8 µM (inactive). The GI50 (786-0) was 31.8 µM (inactive) and the GI50 (XF498) was 60 µM (inactive).
With `CC(=O)NC(CC(C)C)C(=O)NC(Cc1ccccc1)C(=S)N1CCCC1` (stereo unspecified) the GI50 (DMS-114) was > 100 µM (inactive), the GI50 (SN12C) was > 100 µM (inactive) and the GI50 (OVCAR-5) was > 100 µM (inactive). For the same compound, the GI50 (SK-MEL-5) was > 100 µM (inactive), the GI50 (CAKI-1) was > 100 µM (inactive) and the GI50 (Malme-3M) was > 100 µM (inactive). The GI50 (HL-60) was > 100 µM (inactive), the GI50 (UACC-257) was > 100 µM (inactive) and the GI50 (OVCAR-4) was > 100 µM (inactive). For the same compound, the GI50 (COLO 205) was > 100 µM (inactive), the GI50 (M19-MEL) was > 100 µM (inactive) and the GI50 (NCI-H522) was > 100 µM (inactive). For the same compound, the GI50 (SF-295) was > 100 µM (inactive), the GI50 (HCT-15) was greater than 100 µM and the GI50 (DMS-273) was > 100 µM (inactive). The GI50 (RXF 631) was > 100 µM (inactive), the GI50 (UACC-62) was > 100 µM (inactive) and the GI50 (A498) was > 100 µM (inactive). For the same compound, the GI50 (CCRF-CEM) was > 100 µM (inactive), the GI50 (ACHN) was > 100 µM (inactive) and the GI50 (OVCAR-3) was > 100 µM (inactive). The GI50 (A549) was > 100 µM (inactive), the GI50 (HOP-62) was > 100 µM (inactive) and the GI50 (IGROV-1) was > 100 µM (inactive). For the same compound, the GI50 (SK-MEL-28) was > 100 µM (inactive), the GI50 (KM-20L2) was > 100 µM (inactive) and the GI50 (KM12) was > 100 µM (inactive). For the same compound, the GI50 (SNB-19) was > 100 µM (inactive), the GI50 (LXFL 529) was > 100 µM (inactive) and the GI50 (HCC 2998) was > 100 µM (inactive). The GI50 (EKVX) was > 100 µM (inactive), the GI50 (MOLT-4) was > 100 µM (inactive) and the GI50 (RXF 393) was > 100 µM (inactive). For the same compound, the GI50 (SK-MEL-2) was > 100 µM (inactive), the GI50 (RPMI-8226) was > 100 µM (inactive) and the GI50 (U-251) was > 100 µM (inactive). For the same compound, the GI50 (TK-10) was > 100 µM (inactive), the GI50 (SK-OV-3) was > 100 µM (inactive) and the GI50 (SW-620) was > 100 µM (inactive). For the same compound, the GI50 (LOX IMVI) was > 100 µM (inactive), the GI50 (SNB-75) was > 100 µM (inactive) and the GI50 (M14) was > 100 µM (inactive). The GI50 (OVCAR-8) was > 100 µM (inactive), the GI50 (NCI-H460) was > 100 µM (inactive) and the GI50 (NCI-H226) was 74.8 µM (inactive). For the same compound, the GI50 (SF-268) was > 100 µM (inactive), the GI50 (NCI-H23) was > 100 µM (inactive) and the GI50 (UO-31) was > 100 µM (inactive). For the same compound, the GI50 (HOP-92) was > 100 µM (inactive), the GI50 (HT-29) was > 100 µM (inactive) and the GI50 (K562) was > 100 µM (inactive). For the same compound, the GI50 (786-0) was > 100 µM (inactive) and the GI50 (XF498) was > 100 µM (inactive).
